# US20250387481A1, “PRE-TREATED T CELLS FOR USE AS A MEDICAMENT” (STICHTING HET NEDERLANDS KANKER INSTITUUT-ANTONI VAN …, priority 2022, published 2025)
# System: Jurkat T cells
# Assay: MTT assessment of Jurkat T cell survival
# Assay type: cell-based, human
# Conditions: 5 nmol/L, 72 h
# Protocol: Preparation of Jurkat T cells: Jurkat T cells were cultured in Roswell Park Memorial Institute (RPMI) 1640 Medium (Thermo Fisher Scientific, Cat. No. 21875034) containing FBS (10%, Thermo Fisher Scientific, Cat. No. A4766801), Penicillin/streptomycin (10,000 U/ml; Thermo Fisher Scientific, Cat. No. 15140-122), and Ultraglutamine (2 mmol/L, Lonza, Cat. No. BE17-605E/U1). Jurkat T cells were kept in 20% O2, 5% CO2 and at 37 degrees Celsius. Jurkat T cells were treated for 72 h with PBS or with docetaxel (docetaxel 5 nmol/L). Subsequently, Jurkat T cells were collected and washed 3 times in PBS to remove residual chemotherapy.
# About 100,000 T cells were seeded per well in a 96-well plate and treated with
# increasing doses of docetaxel, paclitaxel, or carboplatin for 72 h. Next, T cells were incubated with Thiazolyl Blue Tetrazolium Bromide (0.5 mg/ml, Sigma Aldrich, Cat. No. 298-93-1) for 3 hr in the dark at 37 degrees Celsius. Subsequently, T cells were incubated for 16 h in the dark in a lysis buffer (40% dimerhylofrmamide, 0.55 mol/L sodium dodecyl sulfate, 2% acetic acid, 8.4 mmol/L HCl in MilliQ water). Plates were read with a 565 nm wavelength.
compound,measurement,value
CC(=O)O[C@@]12CO[C@@H]1C[C@H](O)[C@@]1(C)C(=O)[C@H](O)C3=C(C)[C@@H](OC(=O)[C@H](O)[C@@H](NC(=O)OC(C)(C)C)c4ccccc4)C[C@@](O)([C@@H](OC(=O)c4ccccc4)[C@H]21)C3(C)C [docetaxel],Jurkat T cells survival (MTT),did not significantly reduce Jurkat T cells survival
